Results taken from patent publication US4923852A, “Aminoalkyl naphthalenediols as host resistance enhancers against viral infections” (Merck & Co., Inc., priority 1987, dated 1990).
Entries after “also recorded” stand apart in the source; their conditions may differ. Read-outs that look alike come from different tables or passages of the source.

Legend:
[1] = tested on: AIDS or AIDS-related complex (ARC); settings: clinical; cited from earlier work
[2] = in vivo, cited from earlier work
[3] = cited from earlier work
T cell levels = settings: 13 AIDS patients with perpetually swollen glands; cited from earlier work
HIV [4] = settings: clinical; cited from earlier work
[5] = tested on: HIV reverse transcriptase; settings: cited from earlier work
Pseudomonas aeruginosa = experiment: In vivo immunopotentiation against challenge with lethal doses of Pseudomonas aeruginosa, cyclophosphamide-immunocompromised mouse; parameters: species or system mouse (random outbred albino CFl female); settings: 250 mg/kg cyclophosphamide i.p., 4 days prior to challenge
Method: An immunocompromised mouse model, established by intraperitoneal treatment of random outbred albino CFl female mice (ca. 25g) with 250 mg/kg body weight of cyclophosphamide (CY) 4 days Prior to bacterial challenge with Pseudomonas aeruginosa, was used as the assay system. In this model, test compounds were injected only once (2 hours) after CY treatment. After bacterial challenge, LD50 's (50% lethal doses) were determined. Increased LD50 's in treated mice over controls indicated a return to normality. The LD50 for untreated or vehicle-treated mice was routinely 10^6 -10^7 colony forming units (CFU) of P. aeruginosa organisms. After CY treatment, the LD50 was reduced to 10^1 to 10^2 CFU's. The protection afforded by test compound (Protective Index) was determined by calculating the number of LD50 's of protection of treated animals over the LD50 of CY controls.

[6] = tested on: reverse transcriptase in several retroviruses; settings: in vitro; cited from earlier work
HIV [7] = settings: cited from earlier work
[8] = tested on: AIDS-related Kaposi's sarcoma; settings: some AIDS-related Kaposi's sarcoma cases; cited from earlier work

In the case of `CO[C@H]1/C=C/O[C@@]2(C)Oc3c(C)c(O)c4c(c3C2=O)C2=NC3(CCN(CC(C)C)CC3)NC2=C(NC(=O)/C(C)=C\C=C\[C@H](C)[C@H](O)[C@@H](C)[C@@H](O)[C@@H](C)[C@H](OC(C)=O)[C@@H]1C)C4=O` [Ansamycin, rifabutin], the “efficacy in AIDS or ARC patients” value [1] is given as “some efficacy in treating AIDS patients with an opportunistic infection caused by the bacterium Mycobacterium aviumintracellulare”.

In the case of `Cc1cn([C@H]2C[C@H](N=[N+]=[N-])[C@@H](CO)O2)c(=O)[nH]c1=O` [Azidothymidine, 3'-azido-3'-deoxythymidine], the oral absorption ([2]; po) is listed as “Well absorbed orally”, the “half-life in the body” value [2] is listed as “relatively short half-life” and the “penetration of central nervous system” value [2] is listed as “effectively penetrates central nervous system”. For the same compound, the “efficacy in AIDS or ARC patients” value [1] was “promise in prolonging lives of patients with AIDS or AIDS-related complex (ARC)” and the “adverse / toxic effects in humans” value ([3]; clinical) was “some toxicity, with anemia and headaches”.

In the case of `CC(C)(N1CC1C#N)N1CC1C(N)=O` (stereo not shown) [Azimexon], the “efficacy in AIDS or ARC patients” value [1] is given as “improvements in symptoms and immune function in patients with ARC but not AIDS” and the “adverse / toxic effects in humans” value ([3]; clinical) is given as “only toxic effect was mild hemolysis”.

In the case of `CC(C)(S)[C@@H](N)C(=O)O` [D-Penicillamine, 3-mercapto-D-valine], the “effect on T cell levels” value (T cell levels) is given as “temporarily depressed T cell levels” and the “effect on HIV reproduction / viral replication in humans” value (HIV [4]) is given as “Inhibits HIV reproduction in humans; also recorded: suppressed the virus”.

In the case of `O=C(O)P(=O)(O)O` [Foscarnet, trisodium phosphonoformate], the “adverse / toxic effects in humans” value ([3]; in vivo) is given as “serious side effects” and the “inhibition of HIV reverse transcriptase” value [5] is given as “Inhibits HIV reverse transcriptase activity in vitro at levels pharmacologically acceptable in vivo”.

In the case of `CC(=O)Nc1ccc(C(=O)O)cc1.CC(=O)Nc1ccc(C(=O)O)cc1.CC(=O)Nc1ccc(C(=O)O)cc1.CC(O)CN(C)C.CC(O)CN(C)C.CC(O)CN(C)C.O=c1[nH]cnc2c1ncn2[C@@H]1O[C@H](CO)[C@@H](O)[C@H]1O` [Inosine pranobex, p-Acetamidobenzoic acid salt of dimethylaminoisopropanol: inosinate complex], the “effect on immune function in patients” value [1] is given as “improve immune function in ARC patients”.

In the case of `NC(=O)c1ncn([C@@H]2O[C@H](CO)[C@@H](O)[C@H]2O)n1` [Ribavirin, 1-β-D-ribofuranosyl-1,2,4-triazole-3-carboxamide], the “effect on immune function in patients” value [1] is given as “improved immune function in AIDS patients”, the “effect on HIV reproduction / viral replication in humans” value (HIV [4]) is given as “inhibited viral replication” and the safety profile ([3]; in vivo) is given as “acceptable”. For the same compound, the tolerability ([3]; in vivo) was “well tolerated”.

In the case of `Cc1ccc(C(=O)Nc2ccc(S(=O)(=O)O)c3cc(S(=O)(=O)O)cc(S(=O)(=O)O)c23)cc1NC(=O)c1cccc(NC(=O)Nc2cccc(C(=O)Nc3cc(C(=O)Nc4ccc(S(=O)(=O)O)c5cc(S(=O)(=O)O)cc(S(=O)(=O)O)c45)ccc3C)c2)c1` [Suramin], the “efficacy in AIDS or ARC patients” value [1] is given as “little or no evidence of clinical improvement or immunologic recovery” and the “inhibition of HIV reverse transcriptase” value [5] is given as “Potent inhibitor of HIV reverse transcriptase”.

In the case of `O=P1(N(CCCl)CCCl)NCCCO1` (stereo not shown) [cyclophosphamide], the “LD50 of P. aeruginosa after CY treatment” value (Pseudomonas aeruginosa) is reported as 10^1 to 10^2 CFU.

For “ammonium 21-tungsto-9-antimoniate [HPA-23]”, the “inhibition of reverse transcriptase in several retroviruses” value [6] is given as “Inhibits reverse transcriptase in several retroviruses in vitro”, the “efficacy in AIDS or ARC patients” value [1] is given as “no therapeutic benefit has been documented in AIDS patients” and the “effect on HIV infectivity / growth” value (HIV [7]) is given as “some tendency to check the growth of HIV”.

In the case of α-Interferon, the tumor regression [8] is given as “induced tumor regression in some AIDS-related Kaposi's sarcoma cases” and the “effect on HIV infectivity / growth” value (HIV [7]) is given as “Checks the growth of HIV in vitro”.
